Experimental data: PubChem BioAssay AID2060617 (Molecular Pharmacology Branch, DTP, NCI, 2025)
Values joined by “and” are separate entries in the source; they are usually repeats but may differ in a detail not shown here. Equal entries are not always repeated.

Tested on: 485368-065-R4-J2-PDC spheroids with HUVEC/MSC, viability
Assay: Anticancer human tumor 485368-065-R4-J2-PDC patient-derived pancreatic carcinoma cell line growth inhibition [CLK]
Conditions: for viability, T/C: stronger effect = lower value; active = viability on the fitted dose curve at most 10% of control; inactive = the rest
From the text: A high-throughput screen of multi-cell type tumor spheroids was designed to identify active combinations of […] and targeted small molecules. Complex spheroids include a stromal component modeled by human endothelial cells (HUVEC) and fibroblasts modeled by human mesenchymal stem cells (MSCs). The concentration ranges selected for each drug and investigational agent were based upon clinically achievable concentrations if the clinical Cmax of the agent was known.
Compounds. The drugs and investigational agents: cirtuvivint (SM08502; NSC835563), CC-671 (NSC850746), vemurafenib (NSC761431), tapotoclax (NSC804041), sotorasib (NSC818433), adagrasib (NSC831453), MRTX-1133 (NSC836407), BAY2416964 (NSC825713), copanlisib (NSC816437), inavolisib (NSC800729), abemaciclib (NSC768073), osimertinib (NSC779217), entinostat (NSC756642), eltanexor (KPT-8602, NSC794443), venetoclax (NSC766270), ceralasertib (NSC777638), bortezomib (NSC756655), olaparib (NSC753686), talazoparib (NSC767125), alisertib (NSC759677), peposertib (NSC802822), gemcitabine (NSC613327), 5-fluorouracil (NSC19893), SN-38 (NSC673596), oxaliplatin (NSC266046), paclitaxel (NSC125973), and doxorubicin (NSC123127), were obtained from the National Cancer Institute (NCI) Developmental Therapeutics Program Chemical Repository. The FDA-approved anticancer drug set is available from the Developmental Therapeutics Program at https://dtp.cancer.gov/organization/dscb/obtaining/available plates.htm. […] The stock solutions were prepared in dimethyl sulfoxide (DMSO, Sigma-Aldrich, St. Louis, MO, cat. D2650), except for the platinum complexes which were prepared in saline (Quality Biological, Gaithersburg, MD, cat. 114-055-101), at 800-fold the tested concentration and stored at -70 degrees C prior to their use. All drugs and investigational agents were tested over a range starting from a high concentration at or near the clinical Cmax and decreasing in half-log increments. If the clinical Cmax for an agent had not been determined, the highest concentration tested was 10 microM.
Cell Culture. All cells were maintained in an incubator at 37 degrees C and 5% CO2 with 95% humidity. The PDC lines were cultured according to standard operating procedures established by the NCI PDMR. Briefly, all PDCs were thawed and cultured in Matrigel-coated flasks prepared with a working solution of 1X Ham's F-12 nutrient mix, without supplementation (Invitrogen, Waltham, MA, cat. 11765054), 100 U/mL penicillin-streptomycin (Invitrogen, cat. 15140122), and 2.5% Matrigel (Corning Inc., Corning, NY, cat. 354248) for the first three passages. The 947758-054-R-J2-PDC line was cultured in 6B/Colon 1A media, which includes advanced DMEM/F-12 (Thermo Fisher Scientific, cat. 12634028), 10 mM HEPES (Thermo Fisher Scientific, cat. 15630080), 1X GlutaMAX supplement (Thermo Fisher Scientific, cat. 35050061), 0.1 mg/mL primocin (InvivoGen, cat. ant-pm-2), 10% defined fetal bovine serum, heat inactivated (HyClone Laboratories Inc., cat. SH30070.03HI), 1.25 mM N-Acetyl-L-cysteine (Sigma-Aldrich, cat. A9165), 10 mM nicotinamide (Sigma-Aldrich, cat. N0636), 1X B-27 supplement (Thermo Fisher Scientific, cat. 17504044), 1X N-2 supplement (Thermo Fisher Scientific, cat. 17502048), and 10 microM Y-27632 dihydrochloride (Tocris Bioscience, cat. 1254). The 876862-298-R-J1-PDC was cultured in 6E media, which includes all 6B/Colon 1A media components plus 50% L-WRN conditioned media (ATCC, cat. CRL-3276), 50 ng/mL recombinant human EGF recombinant protein (hEGF; Thermo Fisher Scientific, cat. PHG0311), 10 ng/mL recombinant human fibroblast growth factor 10 (hGFG-10; PeproTech, cat. 100-26), 1 ng/mL recombinant human fibroblast growth factor 2 (hFGF-2; PeproTech, cat. 100-18B), and 1 µM prostaglandin E2 (PGE2; Tocris, cat. 2296). The 227483-062-R1-J1-PDC line was cultured in Panc media, containing all 6E components except hFGF-2, with the addition of 500 nM SB-431542 (Selleckchem, cat. S1067) and 10 nM gastrin (Tocris, cat. 3006). […]

[1] = curve of first compound, second compound 0.0316 µM
[2] = curve of first compound, second compound 0.1 µM
[3] = curve of first compound, second compound 0.316 µM
[4] = curve of first compound, second compound 1 µM
[5] = curve of first compound, second compound 3.16 µM
[6] = curve of first compound, second compound 10 µM
[7] = second compound 0.0316 µM, first compound 0.0316 µM
[8] = second compound 0.0316 µM, first compound 0.1 µM
[9] = second compound 0.0316 µM, first compound 0.316 µM
[10] = second compound 0.0316 µM, first compound 1 µM
[11] = second compound 0.0316 µM, first compound 3.16 µM
[12] = second compound 0.0316 µM, first compound 10 µM
[13] = second compound 0.1 µM, first compound 0.0316 µM
[14] = second compound 0.1 µM, first compound 0.1 µM
[15] = second compound 0.1 µM, first compound 0.316 µM
[16] = second compound 0.1 µM, first compound 1 µM
[17] = second compound 0.1 µM, first compound 3.16 µM
[18] = second compound 0.1 µM, first compound 10 µM
[19] = second compound 0.316 µM, first compound 0.0316 µM
[20] = second compound 0.316 µM, first compound 0.1 µM
[21] = second compound 0.316 µM, first compound 0.316 µM
[22] = second compound 0.316 µM, first compound 1 µM
[23] = second compound 0.316 µM, first compound 3.16 µM
[24] = second compound 0.316 µM, first compound 10 µM
[25] = second compound 1 µM, first compound 0.0316 µM
[26] = second compound 1 µM, first compound 0.1 µM
[27] = second compound 1 µM, first compound 0.316 µM
[28] = second compound 1 µM, first compound 1 µM
[29] = second compound 1 µM, first compound 3.16 µM
[30] = second compound 1 µM, first compound 10 µM
[31] = second compound 3.16 µM, first compound 0.0316 µM
[32] = second compound 3.16 µM, first compound 0.1 µM
[33] = second compound 3.16 µM, first compound 0.316 µM
[34] = second compound 3.16 µM, first compound 1 µM
[35] = second compound 3.16 µM, first compound 3.16 µM
[36] = second compound 3.16 µM, first compound 10 µM
[37] = second compound 10 µM, first compound 0.0316 µM
[38] = second compound 10 µM, first compound 0.1 µM
[39] = second compound 10 µM, first compound 0.316 µM
[40] = second compound 10 µM, first compound 1 µM
[41] = second compound 10 µM, first compound 3.16 µM
[42] = second compound 10 µM, first compound 10 µM
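Also: spheroids exposed to compounds for seven days.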
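For viability, T/C in this document: 100% = DMSO vehicle control wells.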

COC1C=CCC(C)C(C)S(=O)(=O)NC(=O)c2ccc3c(c2)N(CC2CCC21)CC1(CCCc2cc(Cl)ccc21)CO3 (stereo not drawn) + CN1CCN(c2cc(C(=O)Nc3cc4cc(-c5cnn(C)c5)ccc4cn3)ccn2)CC1
> 10000 nM: IC50 [1] | IC50 [2] | IC50 [3]
inactive: viability, T/C [7] 105% | viability, T/C [8] 106% | viability, T/C [9] 106% | viability, T/C [10] 113% | viability, T/C [11] 104% | viability, T/C [12] 91.6% | viability, T/C [13] 117% | viability, T/C [14] 124% | viability, T/C [15] 107% | viability, T/C [16] 114% | viability, T/C [17] 108% | viability, T/C [18] 90.8% | viability, T/C [19] 84% | viability, T/C [20] 86% | viability, T/C [21] 87.2% | viability, T/C [22] 78.6% | viability, T/C [23] 81.8% | viability, T/C [24] 63.5%
< 31.6 nM: IC50 [4] | IC50 [5] | IC50 [6]
active: viability, T/C [25] 1.08% | viability, T/C [26] 2.18% | viability, T/C [27] 2.96% | viability, T/C [28] 2.24% | viability, T/C [29] 1.88% | viability, T/C [30] 6.49% | viability, T/C [31] 1.15% | viability, T/C [32] 3.34% | viability, T/C [33] 1.27% | viability, T/C [34] 2.24% | viability, T/C [35] 2.02% | viability, T/C [36] 4.8% | viability, T/C [37] 2.15% | viability, T/C [38] 4.22% | viability, T/C [39] 1.64% | viability, T/C [40] 3.68% | viability, T/C [41] 2.18% | viability, T/C [42] 2.71%

C=C(F)C(=O)N1CCN(c2nc(OCC3CCCN3C)nc3c2CCN(c2cccc4cccc(Cl)c24)C3)CC1CC#N (stereo not drawn) + CNC(=O)c1ccc(Nc2nc(OC3CCCC3)c3c(-c4ccc5nc(C)oc5c4)c[nH]c3n2)c(OC)c1
> 10000 nM: IC50 [1] | IC50 [2] | IC50 [3] | IC50 [4] | IC50 [5]
inactive: viability, T/C [7] 83.5% | viability, T/C [8] 105% | viability, T/C [9] 85.8% | viability, T/C [10] 101% | viability, T/C [11] 115% | viability, T/C [12] 99% | viability, T/C [13] 98.2% | viability, T/C [14] 95.4% | viability, T/C [15] 107% | viability, T/C [16] 112% | viability, T/C [17] 111% | viability, T/C [18] 108% | viability, T/C [19] 79.8% | viability, T/C [20] 80.9% | viability, T/C [21] 89.1% | viability, T/C [22] 92.9% | viability, T/C [23] 82.7% | viability, T/C [24] 93.5% | viability, T/C [25] 81.9% | viability, T/C [26] 79.7% | viability, T/C [27] 77.6% | viability, T/C [28] 78.5% | viability, T/C [29] 94.5% | viability, T/C [30] 107% | viability, T/C [31] 74.4% | viability, T/C [32] 70.2% | viability, T/C [33] 76.1% | viability, T/C [34] 78.1% | viability, T/C [35] 80.9% | viability, T/C [36] 90.4% | viability, T/C [37] 71.6% | viability, T/C [38] 76.4% | viability, T/C [39] 76.1% | viability, T/C [40] 80% | viability, T/C [41] 71.3% | viability, T/C [42] 43%
7590 nM: IC50 [6]

CC(Nc1ccc2c(c1)OCCn1cc(N3C(=O)OCC3C(F)F)nc1-2)C(N)=O (stereo not drawn)
inactive: viability, T/C (compound 0.0316 µM) 95.1% and 99.5% | viability, T/C (compound 0.1 µM) 102% and 117% | viability, T/C (compound 0.316 µM) 116% and 105% | viability, T/C (compound 1 µM) 100% and 102% | viability, T/C (compound 3.16 µM) 91.4% and 89.5% | viability, T/C (compound 10 µM) 86.5% and 79.1%
> 10000 nM: IC50 (curve of compound)

COc1c(OCCCN2CCOCC2)ccc2c3n(c(=NC(=O)c4cnc(N)nc4)nc12)CCN3 + CNC(=O)c1ccc(Nc2nc(OC3CCCC3)c3c(-c4ccc5nc(C)oc5c4)c[nH]c3n2)c(OC)c1
35.3 nM: IC50 [6]
inactive: viability, T/C (second compound 0.0316 µM, first compound 0.00316 µM) 81.5% | viability, T/C (second compound 0.0316 µM, first compound 0.01 µM) 124% | viability, T/C [7] 111% | viability, T/C [8] 66.1% | viability, T/C [9] 44.5% | viability, T/C [10] 40.5% | viability, T/C (second compound 0.1 µM, first compound 0.00316 µM) 103% | viability, T/C (second compound 0.1 µM, first compound 0.01 µM) 121% | viability, T/C [13] 110% | viability, T/C [14] 68.4% | viability, T/C [15] 48% | viability, T/C [16] 39.9% | viability, T/C (second compound 0.316 µM, first compound 0.00316 µM) 72.4% | viability, T/C (second compound 0.316 µM, first compound 0.01 µM) 80.8% | viability, T/C [19] 72.6% | viability, T/C [20] 54.9% | viability, T/C [21] 36.2% | viability, T/C [22] 37.3% | viability, T/C (second compound 1 µM, first compound 0.00316 µM) 76.7% | viability, T/C (second compound 1 µM, first compound 0.01 µM) 65.4% | viability, T/C [25] 59.6% | viability, T/C [26] 42.1% | viability, T/C [27] 31.1% | viability, T/C [28] 30.5% | viability, T/C (second compound 3.16 µM, first compound 0.00316 µM) 71.2% | viability, T/C (second compound 3.16 µM, first compound 0.01 µM) 61.2% | viability, T/C [31] 56.2% | viability, T/C [32] 38.5% | viability, T/C [33] 28.4% | viability, T/C [34] 28.5% | viability, T/C (second compound 10 µM, first compound 0.00316 µM) 66.4% | viability, T/C (second compound 10 µM, first compound 0.01 µM) 65.3% | viability, T/C [37] 49.7% | viability, T/C [38] 38.8% | viability, T/C [39] 27.1% | viability, T/C [40] 30.1%
42.6 nM: IC50 [5]
136 nM: IC50 [3]
243 nM: IC50 [2]
54.9 nM: IC50 [4]
220 nM: IC50 [1]
